Laboratory results from patent US9499534B2, “Thiazole-substituted aminopyrimidines as spleen tyrosine kinase inhibitors” (priority 2013, dated 2016).

Target: recombinant human GST-SYK (Homo sapiens (Human), UniProt P43405)
Assay: Homogeneous Time-Resolved Fluorescence (HTRF) Assay for the Recombinant Human Syk Enzyme
Type: biochemical
Conditions: GST-SYK 5 pM, ATP 25 μM, biotinylated substrate peptide 250 nM, HTRF signal
Procedure: Homogeneous Time-Resolved Fluorescence (HTRF) Assay for the Recombinant Human Syk Enzyme
A recombinant GST-hSYK fusion protein was used to measure potency of compounds to inhibit human Syk activity. The recombinant human GST-SYK (Carna Biosciences #08-176) (5 pM final concentration) was incubated with various concentrations of the inhibitor diluted in DMSO (0.1% final concentration) for 10 minutes at room temperature in 15 mM Tris-HCl (pH 7.5), 0.01% tween 20, 2 mM DTT in 384 well plate format. To initiate the reaction the biotinylated substrate peptide (250 nM final concentration) that contains the phosphorylation site for Syk was added with magnesium (5 mM final concentration) and ATP (25 μM final concentration). Final volume of the reaction was 10 μL. Phosphorylation of the peptide was allowed to proceed for 45′ at room temperature. To quench the reaction and detect the phosphorylated product, 2 nM of a Europium-anti-phosphotyrosine antibody (Perkin Elmer #AD0161) and 70 nM SA-APC (Perkin-Elmer #CR130-100) were added together in 15 mM Tris pH 7.5, 40 mM EDTA, 0.01% tween 20. Final volume of the quenching solution was 10 μL.
The resulting HTRF signal was measured after 30 minutes on an EnVision (Perkin-Elmer) reader using a time-resolved fluorescence protocol. Table A below lists activities as IC50 values (nM) for representative compounds of the invention.

SMILES	IC50 [nM]
Cc1cc(-c2cc(Nc3nccc(C(F)(F)F)n3)cc(-c3cnc([C@]4(O)CC[C@@H](C(=O)O)C(C)(C)C4)s3)c2)ccc1F (single isomer, unassigned) [Example 2.16, (1R,4S or 1S,4R)-4-[5-(4′-fluoro-3′-methyl-5-{[4-(trifluoromethyl)pyrimidin-2-yl]amino}biphenyl-3-yl)-1,3-thiazol-2-yl]-4-hydroxy-2,2-dimethylcyclohexanecarboxylic acid]	153
C[S+]([O-])c1ccccc1-c1cc(Nc2nccc(C(F)(F)F)n2)cc(-c2cnc([C@]3(O)CC[C@@H](C(=O)O)C(C)(C)C3)s2)c1 (single isomer, unassigned) [Example 2.17, (1R,4S or 1S,4R)-4-hydroxy-2,2-dimethyl-4-{5-[2′-(methylsulfinyl)-5-{[4-(trifluoromethyl)pyrimidin-2-yl]amino}biphenyl-3-yl]-1,3-thiazol-2-yl}cyclohexanecarboxylic acid]	15.3
CC1(C)C[C@](O)(c2ncc(-c3cc(Nc4nccc(C(F)(F)F)n4)cc(-c4ccccc4Cl)c3)s2)CC[C@H]1C(=O)O (single isomer, unassigned) [Example 2.18, (1R,4S or 1S,4R)-4-[5-(2′-chloro-5-{[4-(trifluoromethyl)pyrimidin-2-yl]amino}biphenyl-3-yl)-1,3-thiazol-2-yl]-4-hydroxy-2,2-dimethylcyclohexanecarboxylic acid]	37.1
CC1(C)C[C@](O)(c2ncc(-c3cc(Nc4nccc(C(F)(F)F)n4)cc(-c4ccc(N)nc4)c3)s2)CC[C@H]1C(=O)O (single isomer, unassigned) [Example 2.19, (1R,4S or 1S,4R)-4-{5-[3-(6-aminopyridin-3-yl)-5-{[4-(trifluoromethyl)pyrimidin-2-yl]amino}phenyl]-1,3-thiazol-2-yl}-4-hydroxy-2,2-dimethylcyclohexanecarboxylic acid]	1.29
Cc1ccccc1-c1cc(Nc2nccc(C(F)(F)F)n2)cc(-c2cnc([C@]3(O)CC[C@@H](C(=O)O)C(C)(C)C3)s2)c1 (single isomer, unassigned) [Example 2.20, (1R,4S or 1S,4R)-4-hydroxy-2,2-dimethyl-4-[5-(2′-methyl-5-{[4-(trifluoromethyl)pyrimidin-2-yl]amino}biphenyl-3-yl)-1,3-thiazol-2-yl]cyclohexanecarboxylic acid]	70.4
CC1(C)C[C@](O)(c2ncc(-c3cc(Nc4nccc(C(F)(F)F)n4)cc(C4=CCCCC4)c3)s2)CC[C@H]1C(=O)O (single isomer, unassigned) [Example 2.21, (1R,4S or 1S,4R)-4-[5-(3-cyclohex-1-en-1-yl-5-{[4-(trifluoromethyl)pyrimidin-2-yl]amino}phenyl)-1,3-thiazol-2-yl]-4-hydroxy-2,2-dimethylcyclohexanecarboxylic acid]	17.6
Cc1ccc(F)c(-c2cc(Nc3nccc(C(F)(F)F)n3)cc(-c3cnc([C@]4(O)CC[C@@H](C(=O)O)C(C)(C)C4)s3)c2)c1 (single isomer, unassigned) [Example 2.22, (1R,4S or 1S,4R)-4-[5-(2′-fluoro-5′-methyl-5{[4-(trifluoromethyl)pyrimidin-2 yl]amino}biphenyl-3-yl)-1,3-thiazol-2-yl]-4-hydroxy-2,2-dimethylcyclohexanecarboxylic acid]	46
Cc1ccsc1-c1cc(Nc2nccc(C(F)(F)F)n2)cc(-c2cnc([C@]3(O)CC[C@@H](C(=O)O)C(C)(C)C3)s2)c1 (single isomer, unassigned) [Example 2.23, (1R,4S or 1S,4R)-4-hydroxy-2,2-dimethyl-4-{5-[3-(3-methylthiophen-2-yl)-5-{[4-(trifluoromethyl)pyrimidin-2-yl]amino}phenyl]-1,3-thiazol-2-yl}cyclohexanecarboxylic acid]	10.1
Cc1cscc1-c1cc(Nc2nccc(C(F)(F)F)n2)cc(-c2cnc([C@]3(O)CC[C@@H](C(=O)O)C(C)(C)C3)s2)c1 (single isomer, unassigned) [Example 2.24, (1R,4S or 1S,4R)-4-hydroxy-2,2-dimethyl-4-{5-[3-(4-methylthiophen-3-yl)-5-{[4-(trifluoromethyl)pyrimidin-2-yl]amino}phenyl]-1,3-thiazol-2-yl}cyclohexanecarboxylic acid]	24.6
CC1(C)C[C@](O)(c2ncc(-c3cc(Nc4nccc(C(F)(F)F)n4)cc(-c4ccccc4F)c3)s2)CC[C@H]1C(=O)O (single isomer, unassigned) [Example 2.25, (1R,4S or 1S,4R)-4-[5-(2′-fluoro-5-{[4-(trifluoromethyl)pyrimidin-2-yl]amino}biphenyl-3-yl)-1,3-thiazol-2-yl]-4-hydroxy-2,2-dimethylcyclohexanecarboxylic acid]	35.2
CC/C=C\c1cc(Nc2nccc(C(F)(F)F)n2)cc(-c2cnc([C@]3(O)CC[C@@H](C(=O)O)C(C)(C)C3)s2)c1 (single isomer, unassigned) [Example 2.26, (1R,4S or 1S,4R)-4-[5-(3-[(1Z)-but-1-en-1-yl]-5-{[4-(trifluoromethyl)pyrimidin-2-yl]amino}phenyl)-1,3-thiazol-2-yl]-4-hydroxy-2,2-dimethylcyclohexanecarboxylic acid]	2.68
CC1(C)C[C@](O)(c2ncc(-c3cc(/C=C\C4CC4)cc(Nc4nccc(C(F)(F)F)n4)c3)s2)CC[C@H]1C(=O)O (single isomer, unassigned) [Example 2.27, (1R,4S or 1S,4R)-4-[5-(3-[(Z)-2-cyclopropylethenyl]-5-{[4-(trifluoromethyl)pyrimidin-2-yl]amino}phenyl)-1,3-thiazol-2-yl]-4-hydroxy-2,2-dimethylcyclohexanecarboxylic acid]	4.06
C/C=C(\C)c1cc(Nc2nccc(C(F)(F)F)n2)cc(-c2cnc([C@]3(O)CC[C@@H](C(=O)O)C(C)(C)C3)s2)c1 (single isomer, unassigned) [Example 2.28, (1R,4S or 1S,4R)-4-hydroxy-2,2-dimethyl-4-[5-(3-[(1E)-1-methylprop-1-en-1-yl]-5-{[4-(trifluoromethyl)pyrimidin-2-yl]amino}phenyl)-1,3-thiazol-2-yl]cyclohexanecarboxylic acid]	2.75
CC(C)(C)/C=C\c1cc(Nc2nccc(C(F)(F)F)n2)cc(-c2cnc([C@]3(O)CC[C@@H](C(=O)O)C(C)(C)C3)s2)c1 (single isomer, unassigned) [Example 2.29, (1R,4S or 1S,4R)-4-[5-(3-[(1Z)-3,3-dimethylbut-1-en-1-yl]-5-{[4-(trifluoromethyl)pyrimidin-2-yl]amino}phenyl)-1,3-thiazol-2-yl]-4-hydroxy-2,2-dimethylcyclohexanecarboxylic acid]	16.8
C=C(C)c1cc(Nc2nccc(C(F)(F)F)n2)cc(-c2cnc([C@]3(O)CC[C@@H](C(=O)O)C(C)(C)C3)s2)c1 (single isomer, unassigned) [Example 2.30, (1R,4S or 1S,4R)-4-hydroxy-2,2-dimethyl-4-{5-[3-(1-methylethenyl)-5-{[4-(trifluoromethyl)pyrimidin-2-yl]amino}phenyl]-1,3-thiazol-2-yl}cyclohexanecarboxylic acid]	3.94
CC1(C)C[C@@](O)(c2ncc(-c3cc(Nc4nccc(C(F)(F)F)n4)cc(-c4nccs4)c3)s2)CC[C@@H]1C(=O)O (single isomer, unassigned) [Example 3.1, (1R,4S or 1S,4R)-4-Hydroxy-2,2-dimethyl-4-(5-(3-(thiazol-2-yl)-5-((4-(trifluoromethyl)pyrimidin-2-yl)amino)phenyl)thiazol-2-yl)cyclohexanecarboxylic acid]	2.5
CC1(C)C[C@](O)(c2ncc(-c3cc(Nc4nccc(C(F)(F)F)n4)cc(-c4cccs4)c3)s2)CC[C@H]1C(=O)O (single isomer, unassigned) [Example 3.2, (1R,4S or 1S,4R)-4-hydroxy-2,2-dimethyl-4-[5-(3-thiophen-2-yl-5-{[4-(trifluoromethyl)pyrimidin-2-yl]amino}phenyl)-1,3-thiazol-2-yl]cyclohexanecarboxylic acid]	12.4
CC1(C)C[C@](O)(c2ncc(-c3cc(Nc4nccc(C(F)(F)F)n4)cc(-c4ccc(C#N)c(F)c4)c3)s2)CC[C@H]1C(=O)O (single isomer, unassigned) [Example 3.3, (1R,4S or 1S,4R)-4-[5-(4′-cyano-3′-fluoro-5-{[4-(trifluoromethyl)pyrimidin-2-yl]amino}biphenyl-3-yl)-1,3-thiazol-2-yl]-4-hydroxy-2,2-dimethylcyclohexanecarboxylic acid]	34.8
OC1(c2ncc(-c3cc(Nc4nccc(C(F)(F)F)n4)cc(-c4nnn[nH]4)c3)s2)CCC1 [Example 1.4, 1-(5-(3-(1H-Tetrazol-5-yl)-5-((4-(trifluoromethyl)pyrimidin-2-yl)amino)phenyl)thiazol-2-yl)cyclobutanol]	77.7
COc1cc(Nc2nccc(C(F)(F)F)n2)cc(-c2cnc([C@]3(O)CC[C@@H](C(=O)O)CC3)s2)c1 [Example 1.6, cis-4-Hydroxy-4-(5-(3-methoxy-5-((4-(trifluoromethyl)pyrimidine-2-yl)amino)phenyl)thiazol-2-yl)cyclohexanecarboxylic acid]	1.29
